According to US20250289814A1, “COMPOUNDS AS PARP1 INHIBITIORS” (NINGBO NEWBAY TECHNOLOGY DEVELOPMENT CO., LTD., priority 2022, published 2025):
Where two headings read alike, the source gives them in different places.

Columns and labels:
[1] = system: DLD1-BRCA2−/− cells; assay: Cell proliferation assay in DLD1-BRCA2−/− cell lines (CellTiter-Glo, 7 days); type: cell-based
Procedure: BRCA2 (−/−) cells cultured in RPMI 1640+10% FBS were harvested and diluted to a density of 1×10^4 cells/mL and 2×10^4 cells/mL, respectively. Cells (40 μL/well) were seeded into 384-well cell culture plates. Plates were covered and incubated at 37° C., 5% CO2 overnight prior to the addition of test compounds or vehicle. The plates were then incubated at 37° C., 5% CO2 for 7 days. On day 8, the plates were removed from incubator and equilibrated at room temperature for 15 minutes. CellTiter-Glo (40 μL, at 1:1 to culture medium) is added into each well and the plates were placed at room temperature for 30 min. Luminescence was measured using an Envision plate reader. The resultant data were analysed as follows; where LC is culture medium without cells:
% inhibition values for different test compound concentrations were calculated and fitted to a four parameter logistic plot in order to determine the IC50 value using XLfit

[2] = system: Caco-2 cell monolayers; assay: Caco2 (A-B/B-A) permeability; type: in vitro ADME; conditions: for Caco2 efflux ratio (ER): PappB-A/PappA-B; for Caco2 A-B apparent permeability (Papp): apical-to-basolateral; for Caco2 A-B apparent permeability (Papp) / Caco2 B-A apparent permeability (Papp): 5 μM, HBSS pH 7.4, 120 min, 37° C.; for Caco2 B-A apparent permeability (Papp): basolateral-to-apical
Procedure: (§1) The apical-to-basolateral (A-B) and basolateral-to-apical (B-A) transport of 5 μM test compounds in HBSS (10 mM HEPES, pH 7.4) was measured across Caco-2 cell monolayers (cells sourced from American Type Culture Collection, Manassas, Virgina). Duplicate incubations were performed at approximately 37° C. for 120 min, with functionality of the test system confirmed using 5 μM propranolol and digoxin as control compounds. Aliquots (50 μL) from both apical and basolateral wells were transferred into two fresh 96-well plates and quenched with acetonitrile solution containing analytical internal standards. Samples were vortexed mixed, centrifuged and a 100 μL aliquot of the resulting supernatant mixed with an equal volume of ultra-pure water prior to analysis by UPLC-MS/MS. The concentrations of test compound and control compounds in the incubation medium of donor and receiver compartments at the beginning and the end of the incubation period were used to calculate the apparent permeability (Papp) from A-B and B-A directions. The efflux ratio (ER) was expressed as PappB-A/PappA-B. The integrity of the cell monolayers after 2 hours incubation was confirmed using the marker reagent Lucifer yellow.

[3] = target: Recombinant full length PARP2 (Homo sapiens (Human), UniProt Q9UGN5); assay: FP assay PARP2 (fluorescence anisotropy probe displacement); type: binding; conditions: 60 nM PARP2, 8 nM fluorescent probe, 4 h, room temperature
Recombinant full length PARP2, sequence (Q9UGN5 whole entry): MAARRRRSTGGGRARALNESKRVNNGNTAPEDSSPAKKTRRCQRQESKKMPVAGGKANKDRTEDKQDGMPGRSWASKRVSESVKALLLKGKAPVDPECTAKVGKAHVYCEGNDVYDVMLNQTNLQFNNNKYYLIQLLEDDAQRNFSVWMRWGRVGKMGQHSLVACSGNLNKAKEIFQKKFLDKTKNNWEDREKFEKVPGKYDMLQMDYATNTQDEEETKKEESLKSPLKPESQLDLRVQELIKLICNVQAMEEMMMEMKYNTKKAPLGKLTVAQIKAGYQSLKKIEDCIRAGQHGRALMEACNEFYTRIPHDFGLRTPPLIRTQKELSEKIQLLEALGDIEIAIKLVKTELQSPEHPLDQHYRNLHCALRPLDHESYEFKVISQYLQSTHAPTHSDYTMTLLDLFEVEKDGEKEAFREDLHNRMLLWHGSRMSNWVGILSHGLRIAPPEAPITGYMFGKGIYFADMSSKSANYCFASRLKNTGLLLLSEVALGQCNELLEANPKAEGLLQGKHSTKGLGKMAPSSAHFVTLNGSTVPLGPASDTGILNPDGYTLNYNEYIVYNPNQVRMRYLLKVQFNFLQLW
Procedure: (§2) FP experiments were carried out at room temperature using no-binding black 384-well microplates. Recombinant full length PARP1 and PARP2 proteins produced in house were diluted to 20 nM and 60 nM, respectively, with assay buffer (50 mM Tris pH 8, 0.001% Triton X100, 10 mM MgCl2, and 150 mM NaCl) and incubated for 4 h with an equivalent volume of the 8 nM fluorescent probe diluted with assay buffer. Fluorescence anisotropy of the probe when bound to the proteins was measured in the presence of test compounds or solvent control and the effect on anisotropy determined. Polarization values were read using an Envision plate reader using excitation and emission wavelengths of 590 and 630 nm, respectively. All FP values are expressed as mP units. Inhibition ratio was calculated using readout (mP) following the equation as below: […]
(§3) % inhibition values for different test compound concentrations were calculated and fitted to a four parameter logistic plot in order to determine the IC50 value using XLfit.

[4] = target: Recombinant full length PARP1 (Homo sapiens (Human), UniProt P09874); assay: FP assay PARP1 (fluorescence anisotropy probe displacement); type: binding; conditions: 20 nM PARP1, 8 nM fluorescent probe, 4 h, room temperature
Recombinant full length PARP1, sequence (P09874 whole entry): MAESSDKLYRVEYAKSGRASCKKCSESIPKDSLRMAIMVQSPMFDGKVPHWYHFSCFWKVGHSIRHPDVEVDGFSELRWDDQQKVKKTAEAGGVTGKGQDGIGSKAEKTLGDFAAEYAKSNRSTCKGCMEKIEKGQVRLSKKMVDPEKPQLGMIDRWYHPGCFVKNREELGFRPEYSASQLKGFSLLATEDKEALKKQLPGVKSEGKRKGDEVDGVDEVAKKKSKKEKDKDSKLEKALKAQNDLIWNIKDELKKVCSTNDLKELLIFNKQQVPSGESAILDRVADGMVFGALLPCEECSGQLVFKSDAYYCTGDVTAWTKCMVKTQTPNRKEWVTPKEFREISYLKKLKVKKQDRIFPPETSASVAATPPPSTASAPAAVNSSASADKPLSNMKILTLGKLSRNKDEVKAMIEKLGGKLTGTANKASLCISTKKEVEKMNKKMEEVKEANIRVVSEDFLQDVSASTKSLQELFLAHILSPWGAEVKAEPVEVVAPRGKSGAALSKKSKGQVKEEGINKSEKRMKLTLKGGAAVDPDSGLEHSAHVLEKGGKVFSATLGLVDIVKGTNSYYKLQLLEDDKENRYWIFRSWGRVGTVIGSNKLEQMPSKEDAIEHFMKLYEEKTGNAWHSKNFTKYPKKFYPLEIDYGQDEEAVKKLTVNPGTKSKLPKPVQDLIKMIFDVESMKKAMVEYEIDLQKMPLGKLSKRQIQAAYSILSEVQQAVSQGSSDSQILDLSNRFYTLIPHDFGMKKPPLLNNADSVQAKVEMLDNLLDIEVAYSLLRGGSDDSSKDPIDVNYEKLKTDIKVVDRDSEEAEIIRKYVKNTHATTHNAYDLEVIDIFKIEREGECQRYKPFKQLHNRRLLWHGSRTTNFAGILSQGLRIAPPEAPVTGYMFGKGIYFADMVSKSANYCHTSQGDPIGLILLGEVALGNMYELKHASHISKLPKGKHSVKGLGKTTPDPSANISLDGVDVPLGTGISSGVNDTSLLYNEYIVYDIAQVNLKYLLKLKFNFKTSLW
Procedure: as §2, §3

[5] = Caco2 (A-B/B-A) permeability; type: in vitro ADME; conditions: human; for efflux ratio at 120 min, 5 μM: Caco-2, pH 7.4, PappB-A/PappA-B, read-out: Caco2 efflux ratio (ER); for Papp A→B at 120 min, 5 μM: Caco-2, pH 7.4, apical-to-basolateral, read-out: Caco2 A-B apparent permeability (Papp); for Papp A→B at 120 min, 5 μM / Papp B→A at 120 min, 5 μM: HBSS pH 7.4, 120 min, 37° C.; for Papp B→A at 120 min, 5 μM: Caco-2, pH 7.4, basolateral-to-apical, read-out: Caco2 B-A apparent permeability (Papp)
Procedure: as §1

Row | SMILES | IC50 [1] [nM] | Caco2 efflux ratio (ER) [2] | Caco2 A-B apparent permeability (Papp) [2] | Caco2 B-A apparent permeability (Papp) [2] | IC50 [3] [nM] | IC50 [4] [nM] | efflux ratio at 120 min, 5 μM [5] | Papp A→B at 120 min, 5 μM [5] [×10⁻⁶ cm/s] | Papp B→A at 120 min, 5 μM [5] [×10⁻⁶ cm/s] | IC50 ([1]; Homo sapiens, DLD-1, 168 h) [nM]
1 | CCc1cc2cnc([C@@H](C)N3CC(Oc4ccc(C(=O)NC)nc4)C3)cc2[nH]c1=O (single isomer, unassigned) [Compound 48, (enantiomer 1 or 2)-5-((1-(1-(3-ethyl-2-oxo-1,2-dihydro-1,6-naphthyridin-7-yl)ethyl)azetidin-3-yl)oxy)-N-methylpicolinamide] | 21.9 | (ER = 2.51) | 8.96 10*−6 cm/s | 22.47 10*−6 cm/s | > 10000 | 5.1 | – | – | – | –
2 | CCc1nc2ccc([C@H](C)N3CC(Oc4ccc(C(=O)NC)nc4)C3)cc2[nH]c1=O (single isomer, unassigned) [Compound 53, (enantiomer 1 or 2)-5-((1-(1-(2-ethyl-3-oxo-3,4-dihydroquinoxalin-6-yl)ethyl)azetidin-3-yl)oxy)-N-methylpicolinamide] | 12.1 | (ER = 2.51) | 13.2 10*−6 cm/s | 33.19 10*−6 cm/s | > 10000 | 24.2 | – | – | – | –
3 | CCc1nc2ccc([C@H](C)N3CC(Oc4ccc(C(=O)NC)nc4F)C3)cc2[nH]c1=O (single isomer, unassigned) [Compound 57, (enantiomer 1 or 2)-5-((1-(1-(2-ethyl-3-oxo-3,4-dihydroquinoxalin-6-yl)ethyl)azetidin-3-yl)oxy)-6-fluoro-N-methylpicolinamide] | 9.1 | (ER = 2.38) | 12.25 10*−6 cm/s | 29.21 10*−6 cm/s | – | 7.3 | – | – | – | –
4 | CCc1cc2ncc([C@@H](C)N3CC(Oc4ccc(C(=O)NC)nc4F)C3)cc2[nH]c1=O (single isomer, unassigned; enantiomer 1) [Compound 45, (enantiomer 1)-5-((1-(1-(7-ethyl-6-oxo-5,6-dihydro-1,5-naphthyridin-3-yl)ethyl)azetidin-3-yl)oxy)-6-fluoro-N-methylpicolinamide] | 69.3 | – | – | – | 365 | 6.4 | 10.5 | 4.18 | 43.9 | –
5 | CCc1cc2cnc([C@H](C)N3CC(Oc4ccc(C(=O)NC)nc4F)C3)cc2[nH]c1=O (single isomer, unassigned; enantiomer 1) [Compound 49, (enantiomer 1)-5-((1-(1-(3-ethyl-2-oxo-1,2-dihydro-1,6-naphthyridin-7-yl)ethyl)azetidin-3-yl)oxy)-6-fluoro-N-methylpicolinamide] | – | – | – | – | > 10000 | 14.5 | 8.64 | 3.46 | 29.9 | 5.7
6 | CCc1nc2ccc(C(C)N3CC(Oc4ccc(C(=O)NC)nc4)C3)cc2[nH]c1=O (stereo not drawn) [Compound 20, 5-((1-(1-(2-ethyl-3-oxo-3,4-dihydroquinoxalin-6-yl)ethyl)azetidin-3-yl)oxy)-N-methylpicolinamide] | – | – | – | – | > 10000 | 14.8 | 2.16 | 11.8 | 25.4 | 38.2
7 | CCc1nc2ccc(CN3CC[C@@H](Oc4ccc(C(=O)NC)nc4)C3)cc2[nH]c1=O [Compound 28, (R)-5-((1-((2-ethyl-3-oxo-3,4-dihydroquinoxalin-6-yl)methyl)pyrrolidin-3-yl)oxy)-N-methylpicolinamide] | – | – | – | – | > 10000 | 9.3 | 5.03 | 6.32 | 31.8 | 57.6
8 | CCc1cc2cnc(C(C)N3CC(Oc4ccc(C(=O)NC)nc4)C3)cc2[nH]c1=O (stereo not drawn) [Compound 51, 5-((1-(1-(3-ethyl-2-oxo-1,2-dihydro-1,6-naphthyridin-7-yl)ethyl)azetidin-3-yl)oxy)-N-methylpicolinamide] | – | – | – | – | 9610 | 3.8 | 6.4 | 5.4 | 34.6 | 15.9
9 | CCc1cc2cnc(CN3CC[C@@H](Oc4ccc(C(=O)NC)nc4)C3)cc2[nH]c1=O [Compound 63, (R)-5-((1-((3-ethyl-2-oxo-1,2-dihydro-1,6-naphthyridin-7-yl)methyl)pyrrolidin-3-yl)oxy)-N-methylpicolinamide] | – | – | – | – | > 10000 | 7.03 | 7.96 | 5.35 | 42.5 | 5.4

The next lines start with the values.

Row | IC50 [1] [nM] | Caco2 efflux ratio (ER) [2] | Caco2 A-B apparent permeability (Papp) [2] | Caco2 B-A apparent permeability (Papp) [2] | IC50 [3] [nM] | IC50 [4] [nM] | efflux ratio at 120 min, 5 μM [5] | Papp A→B at 120 min, 5 μM [5] [×10⁻⁶ cm/s] | Papp B→A at 120 min, 5 μM [5] [×10⁻⁶ cm/s] | IC50 ([1]; Homo sapiens, DLD-1, 168 h) [nM] | SMILES
10 | 29.5 | (ER = 7.91) | 3.85 10*−6 cm/s | 30.43 10*−6 cm/s | – | – | – | – | – | – | CCc1cc2ncc([C@H](C)N3CC[C@@H](Oc4ccc(C(=O)NC)nc4)C3)cc2[nH]c1=O (single isomer, unassigned) [Compound 13, 5-(((R)-1-((enantiomer 1 or 2)-1-(7-ethyl-6-oxo-5,6-dihydro-1,5-naphthyridin-3-yl)ethyl)pyrrolidin-3-yl)oxy)-N-methylpicolinamide]
11 | – | – | – | – | > 10000 | 7.7 | 19.2 | 1.47 | 28.3 | 288 | CCc1cc2ncc(CN3CC(Oc4cnc(C(=O)NC)c(F)c4)C3)cc2[nH]c1=O [Compound 2, 5-((1-((7-ethyl-6-oxo-5,6-dihydro-1,5-naphthyridin-3-yl)methyl)azetidin-3-yl)oxy)-3-fluoro-N-methylpicolinamide]
12 | – | – | – | – | > 10000 | 7 | 9.29 | 3.32 | 30.8 | 62.1 | CNC(=O)c1ccc(OC2CN(Cc3cnc4cc(C5CC5)c(=O)[nH]c4c3)C2)cn1 [Compound 6, 5-((1-((7-cyclopropyl-6-oxo-5,6-dihydro-1,5-naphthyridin-3-yl)methyl)azetidin-3-yl)oxy)-N-methylpicolinamide]
13 | – | – | – | – | > 10000 | 3.8 | 11.8 | 2.45 | 28.8 | 51.1 | CCc1cc2ncc(CN3C[C@@H](F)[C@@H](Oc4ccc(C(=O)NC)nc4)C3)cc2[nH]c1=O [Compound 8, 5-(((3S, 4R)-1-((7-ethyl-6-oxo-5,6-dihydro-1,5-naphthyridin-3-yl)methyl)-4-fluoropyrrolidin-3-yl)oxy)-N-methylpicolinamide]
14 | – | – | – | – | > 10000 | 3.1 | 39.1 | 0.57 | 22.4 | 11.5 | CCc1cc2ncc(CN3CCC(Nc4ccc(C(=O)NC)nc4)C3)cc2[nH]c1=O (stereo not drawn) [Compound 10, 5-((1-((7-ethyl-6-oxo-5,6-dihydro-1,5-naphthyridin-3-yl)methyl)pyrrolidin-3-yl)amino)-N-methylpicolinamide]
15 | – | – | – | – | > 10000 | 4.8 | 9.69 | 4.13 | 40 | 6 | CCc1cc2ncc(CN3CC[C@@H](Oc4ccc(C(=O)NC)nc4)C3)cc2[nH]c1=O [Compound 11, (R)-5-((1-((7-ethyl-6-oxo-5,6-dihydro-1,5-naphthyridin-3-yl)methyl)pyrrolidin-3-yl)oxy)-N-methylpicolinamide]
